Data: patent US20060134017A1, “Oral treatment compositions containing an anti-adhesion agent, antibacterial agent and incompatible compound” (Colgate-Palmolive Company, priority 2004, published 2006)

Tests used:
[1] = generic protease activity assay (Panvera); assay type: biochemical; settings: neat powder, 40° C., neutral pH; +/-3
Experimental: The activity of proteases was evaluated using generic protease assay from Panvera at 40° C. and neutral pH. The activity was assessed relative to papain on an equal weight basis of neat powder samples. Krillase protease enzymes are a mixture of eight different proteases; thus, the activity of any one of the eight was not discernable by the present assay. The assay aided in determining dose for the dose response studies. In clinical formulations, enzymes were dosed based on an equal weight basis. Table 2 gives the relative activity of neat enzymes.

[2] = system: oral bacteria culture on saliva-coated hydropxyapatite (SHAP) disks; assay: Artificial Mouth anti-attachment efficacy model (chemostat flow cell, SHAP disks); assay type: cell-based; settings: for anti-adhesion efficacy, ranking of in vitro results: toothpaste formulas; for anti-adhesion efficacy relative to matching negative control paste (statistical analysis): toothpaste with 0.226 weight percent protease, ABS610 after 24 hours
Description: To test the efficacy of the actives in toothpaste formulas, the Artificial Mouth model was utilized. This is generally described in Herles, S., S. Olsen, et al. (1994). “Chemostat flow cell system: an in vitro model for the evaluation of antiplaque agents.” J Dent Res 73(11): 1748-55. The Artificial Mouth model is a flow system that simulates the human mouth. Saliva-coated hydropxyapatite (SHAP) disks served as the artificial teeth, and a bacteria culture consisting of the main oral bacteria in humans flowed through the system at a speed consistent with the in vivo human saliva. Eight disks for each treatment were then placed in the chemostat flow cell and oral bacteria culture was allowed to flow through the disks overnight (20-24 hours) to see if actives coated on the disk surfaces would prevent bio-film formation. After 24 hours the SHAP disks were removed and amount of bacteria quantified. The ABS610 of the solutions were then measured and analyzed. […] From this value, the percentage anti-adhesion effectiveness of the pastes is evaluated relative to a matching negative control. Two concentrations of protease were tested for each of the three protease; namely. 0.226 weight percent and 0.065 weight percent.

Ficin
Activity by protease assay [1]: 23 CPU/g
anti-adhesion efficacy, ranking of in vitro results [2]: better then the papain
anti-adhesion efficacy relative to matching negative control paste (statistical analysis) [2]: showed efficacy

B1: Papain: cysteine protease enzyme obtained from the fruit and leaves of Carica papaya (EDC papain) (protein, UniProt P00784 134-345, looked up)
Papain: IPEYVDWRQKGAVTPVKNQGSCGSCWAFSAVVTIEGIIKIRTGNLNEYSEQELLDCDRRSYGCNGGYPWSALQLVAQYGIHYRNTYPYEGVQRYCRSREKGPYAAKTDGVRQVQPYNEGALLYSIANQPVSVVLEAAGKDFQLYRGGIFVGPCGNKVDHAVAAVGYGPNYILIKNSWGTGWGENGYIRIKRGTGNSYGVCGLYTSSFYPVKN
Activity by protease assay [1]: 25 CPU/g
anti-adhesion efficacy, ranking of in vitro results [2]: better then the matching placebo paste
anti-adhesion efficacy relative to matching negative control paste (statistical analysis) [2]: showed efficacy
